Laboratory results published in patent publication US12529022B2, “Human organ-on-chip models for predictive screening” (The Trustees of Columbia University in the City of New York, priority 2018, dated 2026).

Tests used:
human cardiac OOC = assay: Cardiac OOC calcium transients, isoproterenol response after linsitinib exposure; assay type: cell-based; conditions: tissues exposed to linsitinib, then 1 μM isoproterenol
Procedure: Isoproterenol response: Samples were loaded with Fluo-4, AM, cell permeant (Invitrogen) in RPMI Medium 1630 supplemented with B27 for 30 min at 37° C. […] Videos were analysed in MATLAB using a custom script that calculated the temporal changes in calcium fluorescence intensity. Each frame was normalized to a baseline background region chosen by the user to give baseline-corrected changes in minimum and maximum fluorescence values for each frame. The temporal changes in fluorescence intensity were presented in calcium transient traces from which the measurements were obtained. The calcium transient timing was determined as the peak-to-peak values of two successive beats as defined by the peak maxima.
Calcium transient traces were also analyzed 10 minutes after exposure to 1 μM isoproterenol hydrochloride, diluted in RPMI Medium 1630 supplemented with B27™.

[1] = system: metastatic (KHOS/NP cell line derived) osteosarcoma OOC; assay: Metastatic osteosarcoma OOC, luciferase luminescence (cancer cell number and viability); assay type: cell-based, human; conditions: 12 μM
Procedure: Drug treatment experiments recapitulating the patient treatment regimens and the patient plasma concentration of 12 μM of linsitinib were then carried out on the nonmetastatic and metastatic TE-ES and OS models. FIGS. 44 and 45 are graphs illustrating non-metastatic (U2-OS cell line derived, FIG. 44) and metastatic (KHOS/NP cell line derived, FIG. 45) osteosarcoma OOCs exposed to linsitinib (12 μM) according to the drug treatment regimen outlined. Luminescence as a function of cancer cell number and viability was measured (mean±s.e.m., n=6 for day 3, and n=3 for day 7 and 21, biologically independent per group). Significance was determined by unpaired two-tailed Student's t test of treatment group at specific day with respective control; *P<0.05; **P<0.01; ***P<0.001. Tissue engineered bone tumor models: Using an established protocol, expanded MSCs were seeded into the bone matrix scaffolds (4 mm×4 mm×1 mm) at a concentration of 10^6 cells per scaffold, using 40 μL of medium. The cells were allowed to attach for 2 hours, and then supplemented with additional mesenchymal stem cell medium overnight. The following day, osteogenic differentiation of the seeded cells was initiated by addition of low glucose DMEM supplemented with 1 μM dexamethasone (Sigma-Aldrich), 10 mM β-glycerophosphate (SigmaAldrich), and 50 μM L-ascorbic acid-2-phosphate (Sigma Aldrich). Each scaffold was incubated in 4 mL of osteogenic media, with media changes three times a week, for 3 weeks, allowing for the MSCs to differentiate into functional, maturing osteoblasts. Two weeks following the initiation of osteogenic differentiation, aggregates of tumor cells were prepared as described previously. Briefly, 0.3×10^6 cells were used to form ES aggregates and 0.5×10^6 cells were used to form OS aggregates. […] Cell viability: Cancer cell viability was measured for GFP-Luciferase labelled cancer cells using ONE-Glo luciferase substrate that was prepared according to manufacturer's protocol (Promega). […] Cardiac cell viability was assessed through the Pierce LDH Cytotoxicity Assay Kit (Thermo Fisher Scientific). […]

In the case of `C[C@]1(O)C[C@@H](c2nc(-c3ccc4ccc(-c5ccccc5)nc4c3)c3c(N)nccn32)C1` [linsitinib, Linsitinib (OSI-906)], the “inotropic response to isoproterenol” value (human cardiac OOC) is reported as “inotropic responses were not observed”, the “proarrhythmic events in calcium transients” value (human cardiac OOC) is reported as “proarrhthymic events” and the “luminescence (cancer cell number and viability) vs control” value ([1]; after 3 days) is reported as “significant drug response”. For the same molecule, the drug efficacy ([1]; by day 7) was “stopped being effective” and the course of tumor ([1]; day 7 to D21) was “rapidly expand before stabilizing by D21”.
